Reference: PMC6155600, “Design, Synthesis and Cellular Characterization of a Dual Inhibitor of 5-Lipoxygenase and Soluble Epoxide Hydrolase” (Molecules : A Journal of Synthetic Chemistry and Natural …, 2016)

Key:
[1] = biological target: T1, soluble epoxide hydrolase (sEH) (Homo sapiens, UniProt P34913); assay: fluorescence-based enzyme activity assay with recombinant human sEH (PHOME substrate); format: biochemical
T1 construct: gene EPHX2
T1 sequence (P34913 1-555): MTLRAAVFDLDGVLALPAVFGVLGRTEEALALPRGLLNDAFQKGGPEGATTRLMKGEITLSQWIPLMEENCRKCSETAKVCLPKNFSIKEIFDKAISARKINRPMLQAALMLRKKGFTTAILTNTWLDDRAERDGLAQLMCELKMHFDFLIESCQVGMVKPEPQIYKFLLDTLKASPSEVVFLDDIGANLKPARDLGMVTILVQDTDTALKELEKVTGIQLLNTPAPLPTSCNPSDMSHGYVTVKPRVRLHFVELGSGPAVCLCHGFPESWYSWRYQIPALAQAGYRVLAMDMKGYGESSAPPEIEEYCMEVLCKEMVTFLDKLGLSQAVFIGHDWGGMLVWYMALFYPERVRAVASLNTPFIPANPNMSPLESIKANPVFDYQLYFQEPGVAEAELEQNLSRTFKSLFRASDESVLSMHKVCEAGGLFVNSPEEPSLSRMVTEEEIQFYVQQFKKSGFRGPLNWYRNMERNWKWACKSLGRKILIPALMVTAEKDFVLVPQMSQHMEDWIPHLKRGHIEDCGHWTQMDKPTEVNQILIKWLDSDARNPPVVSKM

[2] = biological target: T2, 5-lipoxygenase (5-LO) (Homo sapiens, UniProt P09917); assay: purified recombinant 5-LO activity assay, arachidonic acid substrate, HPLC product analysis; format: biochemical
T2 construct: gene ALOX5
T2 sequence (P09917 1-674): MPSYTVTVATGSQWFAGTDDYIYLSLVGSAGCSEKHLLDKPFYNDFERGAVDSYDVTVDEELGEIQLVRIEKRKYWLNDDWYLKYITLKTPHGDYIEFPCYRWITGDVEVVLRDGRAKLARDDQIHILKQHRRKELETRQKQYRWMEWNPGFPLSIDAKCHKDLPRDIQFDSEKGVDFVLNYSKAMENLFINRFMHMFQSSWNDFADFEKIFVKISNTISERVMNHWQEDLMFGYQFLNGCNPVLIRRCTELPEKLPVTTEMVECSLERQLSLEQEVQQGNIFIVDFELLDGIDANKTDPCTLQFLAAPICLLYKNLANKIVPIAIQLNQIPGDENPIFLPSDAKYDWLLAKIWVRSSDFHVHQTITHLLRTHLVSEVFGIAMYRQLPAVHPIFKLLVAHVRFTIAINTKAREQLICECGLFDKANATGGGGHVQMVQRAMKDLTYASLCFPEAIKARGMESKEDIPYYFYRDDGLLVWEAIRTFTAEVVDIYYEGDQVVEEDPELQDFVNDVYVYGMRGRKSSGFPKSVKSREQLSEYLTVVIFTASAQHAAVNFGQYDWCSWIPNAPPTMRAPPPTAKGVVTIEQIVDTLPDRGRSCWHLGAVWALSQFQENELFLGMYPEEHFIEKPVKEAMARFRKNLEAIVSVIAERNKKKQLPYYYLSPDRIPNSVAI

- IC50 [1]: 29 nM
- IC50 [2]: 1300 nM
SMILES: COc1ccc(CN(O)C(N)=O)cc1OCCCNC(=O)Nc1ccc(OC(F)(F)F)cc1 [compound 5, 1-(3-{5-(Hydroxyureido)methyl-2-methoxyphenoxy}propyl)-3-[4-(trifluoromethoxy)phenyl]urea]
